Test results from patent US20230384322A1, “COMPLEMENTOME ASSAY” (Complement Therapeutics Limited, priority 2020, published 2023).

Tests used:
U87 GBM cells = assay: Real-time RT-PCR of CFH/FHL-1/IDO expression in cultured U87 GBM cells; format: cell-based, human
Description: (§1) FIGS. 13A to 13E. Indoleamine 2,3 dioxygenase 1 (IDO) non-metabolically increases complement factor H (CFH) levels in human glioblastoma (GBM). (13A) Flow chart for the microarray experimental design, data analysis, as well as validation of results. Real-time RT-PCR confirmation of IDO regulatory effects on CFH expression in cultured (13B) U87 or (13C) PDX43 GBM. Cells were exposed to a variety of conditions including transfection with IDO specific siRNA (20 nM) or scrambled control siRNA for 16 hours, treatment with or without 100 ng/mL human interferon-gamma (IFN-γ), treatment with or without the IDO enzyme inhibitor, BGB-5777 (1 uM), or IFNγ plus BGB-5777 for 24 hours. Quantitative RT-PCR was performed (n=3 reflecting one representative experiment from 4 experimental repeats). (13D) Quantitative RT-PCR analysis of IDO and CFH mRNA expression on IFNγ-stimulated U87 cells treated with CFH siRNA or scrambled control siRNA. Same experimental conditions as in [13B] (n=3/group reflecting one representative experiment from 3 experimental repeats). (13E) mRNA expression levels for human IDO, CFH, and CD3 were quantified and compared among intracranial PDX43 and patient-resected newly-diagnosed or recurrent intracranial human GBM (n=4-9/group). Intracranially-engrafted (ic.) PDX43 was isolated from humanized mice with or without treatment of CD4′ and CD8^+ T cell depleting antibodies between 14-21 days post-intracranial injection. ***, P<0.001; ND: not detectable, ns: not significant. All bar graphs represent mean±SEM.
FIGS. 15A to 15H. Indoleamine 2,3 dioxygenase 1 (IDO) enhances the expression of both complement factor H (CFH) isoforms in human glioblastoma (GBM). (15A) Schematic representation of CFH transcript variants reflecting the full-length (CFH) and truncated (FHL-1) sequences. Pearson's correlation analysis of (15B) IDO and (15C) CD3E with CFH and FHL-1 using the TCGA GBM RNA-Seq dataset. (15D) Left panel: Western blot analysis of surgically-resected tumor tissue samples from both newly diagnosed GBM patients and recurrent GBM patients. Right panel: Protein expression of full-length and truncated CFH variants and IDO in IFNγ-stimulated U87 cells. Cells were treated with IFNγ and cultured in serum-free medium for 24 to 48 hours. Both cell lysates and cell culture supernatants were collected. The supernatants were concentrated with ultrafiltration and analyzed by Western blot along with cell lysate samples. One representative result is shown that reflects 4 experimental repeats. (15E) Time course analysis of IDO, CFH, FHL-1 mRNA expression after treatment with IFNγ in U87 (top row) and PDX43 (bottom row) GBM cells. The U87 cells were stimulated with 100 ng/ml human IFNγ and RNA lysates were extracted followed by quantitative RT-PCR analysis (n=4). (15F) Western blot of cell lysates and supernatants collected from the same experimental design as in top panel. Data from one representative experiment from 2 experiments are shown. (15G) Top panel: Western blot showing IDO protein levels in unmodified (Unmod.) as well as in CRISPR-Cas9 IDO-deleted (IDOKO) U87 cells. Unmod. U87 cells and IDOKO U87 cells were stimulated with 100 ng/mL human IFNγ for 24 hours. Protein lysates were collected from both untreated and IFNγ treated cells followed by Western blotting analysis; Lower panel: HPLC measurement of kynurenine (Kyn) and tryptophan (Trp) in Unmod. U87 and IDOKO U87 cells. (15H) Comparison of IDO, CFH, and FHL-1 mRNA expression induction in Unmod. and IDOKO U87 cells using quantified RT-PCR (n=3 per group that reflects 1 representative experiment after 2 repeats). ***, P<0.001; ND: not detectable. All bar graphs represent mean±SEM.
The microarray analysis was carried out at the Northwestern University NUSeq Core Facility using the human transcriptome analysis system, Clariom™ D Assay (Thermo Fisher Scientific). Briefly, 1×10^5 cells per well of U87 cells or IDO-OE U87 cells were seeded on 12-well plate. […]

U87 cells = assay: Western blotting of CFH, FHL-1 and IDO in U87 cell lysates and supernatants; format: cell-based, human; settings: serum-free medium 24 to 48 hours
Excerpt: FIGS. 15A to 15H. Indoleamine 2,3 dioxygenase 1 (IDO) enhances the expression of both complement factor H (CFH) isoforms in human glioblastoma (GBM). (15A) Schematic representation of CFH transcript variants reflecting the full-length (CFH) and truncated (FHL-1) sequences. Pearson's correlation analysis of (15B) IDO and (15C) CD3E with CFH and FHL-1 using the TCGA GBM RNA-Seq dataset. (15D) Left panel: Western blot analysis of surgically-resected tumor tissue samples from both newly diagnosed GBM patients and recurrent GBM patients. Right panel: Protein expression of full-length and truncated CFH variants and IDO in IFNγ-stimulated U87 cells. Cells were treated with IFNγ and cultured in serum-free medium for 24 to 48 hours. Both cell lysates and cell culture supernatants were collected. The supernatants were concentrated with ultrafiltration and analyzed by Western blot along with cell lysate samples. One representative result is shown that reflects 4 experimental repeats. […] The U87 cells were stimulated with 100 ng/ml human IFNγ and RNA lysates were extracted followed by quantitative RT-PCR analysis (n=4). […] (15H) Comparison of IDO, CFH, and FHL-1 mRNA expression induction in Unmod. and IDOKO U87 cells using quantified RT-PCR (n=3 per group that reflects 1 representative experiment after 2 repeats). ***, P<0.001; ND: not detectable. […]

[1] = system: U87, PDX12, PDX39, and PDX43; assay: In vitro expression analysis of human CFH mRNA in different GBM cells with or without human IFNγ; format: cell-based
Excerpt: FIGS. 14A to 14I. Indoleamine 2,3 dioxygenase 1 (IDO) and complement factor H (CFH) mRNA levels positively correlate with T cell infiltration in patient-resected glioblastoma (GBM). (14A) mRNA expression levels for IDO and CFH in grade II (green; n=226), grade III (blue; n=249), and grade IV (GBM; red; n=172) glioma of the RNA Hi-Seq. Illumina dataset as analyzed in the cancer genome atlas (TCGA). Horizontal lines in the scatter plots represents mean±SEM. (14B) Pearson's correlation analysis for IDO and CFH mRNA levels within GBM and all-grade glioma. […] CFH mRNA levels were analyzed in U87 GBM cells co-cultured with either naïve or activated T cells or conditioned medium from activated T cells in the presence or absence of IFNγ-neutralizing antibodies. […]
Total RNA was extracted from freshly dissected tissue samples and cultured cells using the Trizol Reagent and PureLink RNA Mini Kit (Thermo Fisher Scientific), respectively. […] Quantitative real-time PCR was performed on a CFX96 Touch Real-Time PCR Detection System using the default program setting (Bio-Rad). […] The relative quantitation of gene expression was calculated using the 2-AACT method (29) with normalization of the target threshold cycle (CT) values to the internal housekeeping gene (GAPDH).

PDX43 GBM cells = assay: Real-time RT-PCR of CFH/FHL-1/IDO expression in cultured PDX43 GBM cells; format: cell-based, human; settings: IFNγ time course
Description: as §1, with “Same experimental conditions as in [13B] (n=3/group reflecting one representative experiment from 3 experimental repeats).” left out, “Intracranially-engrafted (ic.) PDX43 was isolated from humanized mice with or without treatment of CD4′ and CD8^+ T cell depleting antibodies between 14-21 days post-intracranial injection. ***, P<0.001; ND: not detectable, ns: not significant. All bar graphs represent mean±SEM.” left out
FIGS. 15A to 15H. […] The supernatants were concentrated with ultrafiltration and analyzed by Western blot along with cell lysate samples. […] The U87 cells were stimulated with 100 ng/ml human IFNγ and RNA lysates were extracted followed by quantitative RT-PCR analysis (n=4). […]

Molecule: IDO-specific siRNA: human IDO-specific siRNA duplex (GE Health Dharmacon), SEQ ID NO:174 and 175 (chain 1 GCUUAUGACGCCUGUGUGAUU; chain 2 UCACACAGGCGUCAUAAGCUU; listed as RNA, chemistry not given here; listed as Homo sapiens)
- Effect on CFH expression (quantitative RT-PCR) (U87 GBM cells; U87 cells, siRNA 20 nM, 16 hours): decreased expression of CFH

Molecule: IFNγ: human recombinant interferon-gamma (Shenandoah Biotechnology), T cell effector cytokine
- Earliest time IDO mRNA expression is detectable after treatment (U87 GBM cells; 100 ng/ml human IFNγ time course): 4 h
- IDO, CFH and FHL-1 mRNA expression induction (U87 GBM cells; CRISPR-Cas9 IDO-deleted (IDOKO) U87 cells): no such increase
- Effect on CFH expression (quantitative RT-PCR) (U87 GBM cells; U87 cells, 100 ng/mL, 24 hours): increase of CFH expression
- Earliest time full-length and truncated CFH variants increased after treatment (U87 GBM cells; U87 cells, 100 ng/ml human IFNγ time course): 12 h
- IDO, CFH and FHL-1 mRNA expression induction (U87 GBM cells; unmodified U87 cells, 100 ng/mL): induced and upregulated
- CFH and FHL-1 protein expression in cell culture supernatants (Western blot) (U87 cells): higher
- Effect on CFH mRNA expression in human GBM cells [1]: increased CFH expression
- Earliest time full-length and truncated CFH variants increased after treatment (PDX43 GBM cells): 12 h

B1: Complement Factor I (FI) (protein)
chain: KVTYTSQEDLVEKKCLAKKYTHLSCDKVFCQPWQRCIEGTCVCKLPYQCPKNGTAVCATNRRSFPTYCQQKSLECLHPGTKFLNNGTCTAEGKFSVSLKHGNTDSEGIVEVKLVDQDKTMFICKSSWSMREANVACLDLGFQQGADTQRRFKLSDLSINSTECLHVHCRGLETSLAECTFTKRRTMGYQDFADVVCYTQKADSPMDDFFQCVNGKYISQMKACDGINDCGDQSDELCCKACQGKGFHCKSGVCIPSQYQCNGEVDCITGEDEVGCAGFASVTQEETEILTADMDAERRRIKSLLPKLSCGVKNRMHIRRKRIVGGKRAQLGDLPWQVAIKDASGITCGGIYIGGCWILTAAHCLRASKTHRYQIWTTVVDWIHPDLKRIVIEYVDRIIFHENYNAGTYQNDIALIEMKKDGNKKDCELPRSIPACVPWSPYLFQPNDTCIVSGWGREKDNERVFSLQWGEVKLISNCSKFYGNRFYEKEMECAGTYDGSIDACKGDSGGPLVCMDANNVTYVWGVVSWGENCGKPEFPGVYTKVANYFDWISYHVGRPFISQYNV
- C3b breakdown in vitro (C3b incubated with FI and a fragment of cofactor CR1; time course followed by gel electrophoresis and GluC/SRM-MS) (C3b): the formation of C3b fragments iC3b, C3f and C3c, and loss of intact C3b can be clearly detected over time
